Laboratory results from the SangsterLogP compilation.

Assay: method code SF, from Suwinski, J.; Salwinska, E.; Watras, J.; Widel, M. (1985). Nitroimidazoles. VI. Partition coefficients and tautomerism of simple nitroimidazoles. 42(4)352-358.

Compound | logP
Cn1cnc([N+](=O)[O-])c1Br | 0.36
COc1c([N+](=O)[O-])ncn1C | 0.19
Cc1nc([N+](=O)[O-])c(Cl)n1C | 0.34
COc1[nH]c(C)nc1[N+](=O)[O-] | 0.21
Cc1nc([N+](=O)[O-])c(Cl)[nH]1 | 1.06
Cc1c([N+](=O)[O-])nc(Br)n1C | 0.39
Cn1cnc([N+](=O)[O-])c1 | -0.44
COc1[nH]cnc1[N+](=O)[O-] | 0.13
O=[N+]([O-])c1[nH]cnc1Br | 0.78
Cc1nc([N+](=O)[O-])c(N)n1C | -1.1
Cc1[nH]cnc1[N+](=O)[O-] | 0.23
Cc1nc(Br)c([N+](=O)[O-])n1C | 0.87
Cc1c([N+](=O)[O-])ncn1C | -0.11
Cc1nc([N+](=O)[O-])c(Br)n1C | 0.44
Cn1cnc(Cl)c1[N+](=O)[O-] | 0.69
Cc1nc(Cl)c([N+](=O)[O-])n1C | 0.87
Cc1nc(Br)n(C)c1[N+](=O)[O-] | 0.82
Cn1cnc([N+](=O)[O-])c1N | -1
Cc1nc([N+](=O)[O-])c(Br)[nH]1 | 1.14
Cc1nc([N+](=O)[O-])cn1C | -0.24
Cn1cncc1[N+](=O)[O-] | 0.13
O=[N+]([O-])c1ncc[nH]1 | 0.11
Cn1cnc(Br)c1[N+](=O)[O-] | 0.77
COc1c([N+](=O)[O-])nc(C)n1C | -0.09
Cn1ccnc1[N+](=O)[O-] | -0.17
Cn1cc([N+](=O)[O-])nc1Br | 0.33
Cn1c([N+](=O)[O-])cnc1Cl | 0.62
Cn1cc([N+](=O)[O-])nc1Cl | 0.19
Cc1[nH]c(Br)nc1[N+](=O)[O-] | 0.86
